In US8454991B2, “Method and device for photodynamic therapy” (Quest Pharmatech Inc., priority 2006, dated 2013):

What was measured:
EMT-6 tumor cells = experiment: In vitro clonogenic assay (PDT phototoxic effect); type: cell-based; details: 2 hours incubation; for inhibition at 5 µM: Mus musculus
Method: The feasibility of using these alternative light sources as over the counter devices for topical PDT application is tested using an in vitro clonogenic assay to assess their ability to generate a phototoxic effect with SL-017, a known photosensitizer.
In vitro clonogenic assay. EMT-6 tumor cells are grown in culture in RPMI 1640 and plated onto Petri dishes. The photosensitizer SL-017 is added at a fixed concentration of 5 μM to the dishes and allowed to incubate for 2 hours, and then removed. The dishes are irradiated using the different two LED light sources and the orange (rhodamine 6G) chemiluminescent light source at pre-determined light doses. The EMT-6 cells are then re-plated and allowed to grow, for 5 to 7 days The number of surviving colonies in the control and treated plates are counted visually and compared.

mouse skin = type: in vivo, Male Balb/c mice
Method: The feasibility of using these alternative light sources as over the counter devices for topical PDT application is tested using an in vivo hair removal assay to assess their ability to generate a hair removal effect on mouse skin using SL-017, a known photosensitizer. Mouse strain. Male Balb/c mice of approximately 6 to 8 weeks of age weighing 16 to 18 grams were obtained from Charles River animal facility. The animals were allowed a minimum of 1 week to acclimatize to the facility prior to treatment. In vivo hair removal assay. The animals were anesthetized with a 0.1 ml intra peritoneal injection of 12 mg/ml sodium pentobarbital in 0.9% Saline. An approximately 1.5×1.5 cm square area on the back of each animal was shaved and the area treated with a 2% SL-017 topical gel for 60 minutes. The excess gel was removed from the area and it was covered with a template with a 1 cm diameter opening. The open area was treated with either 15 or 30 J/cm^2 of light from a LED flashlight. […] The mice were monitored once weekly for the re-growth of hair in the treated area. For the white LED, the treatment time required for the 15 J/cm^2 dose group was 5 minutes and 45 sec. while for the 30 J/cm^2 dose group was 11 minutes and 30 seconds. For the red LED, the treatment time required for the 15 J/cm^2 dose group was 45 minutes, and for the 30 J/cm^2 dose group was 90 minutes.

COc1c2c3c4c(c(NCCCN(C)C)c(=O)c5c(O)cc(OC)c(c6c(OC)cc(O)c(c1=O)c63)c54)C=C(C)C2C(C)=O (stereo not shown) [SL-017]
inhibition at 5 µM (EMT-6 tumor cells; EMT6, SL-017 5 μM, orange (rhodamine 6G) chemiluminescent light stick, 1 hour exposure): 31.3%
inhibition at 5 µM (EMT-6 tumor cells; EMT6, light or radiation study, 2 h, SL-017 5 μM, red LED light (3 W), 0.1 J/cm^2): 100%
inhibition at 5 µM (EMT-6 tumor cells; EMT6, light or radiation study, 2 h, SL-017 5 μM, red LED light (3 W), 0.25 J/cm^2): 100%
inhibition at 5 µM (EMT-6 tumor cells; EMT6, light or radiation study, 2 h, SL-017 5 μM, red LED light (3 W), 0.4 J/cm^2): 100%
inhibition at 5 µM (EMT-6 tumor cells; EMT6, light or radiation study, 2 h, SL-017 5 μM, white LED light (9 W), 0.5 J/cm^2): 98.6%
inhibition at 5 µM (EMT-6 tumor cells; EMT6, light or radiation study, 2 h, SL-017 5 μM, white LED light (9 W), 1.0 J/cm^2): 100%
inhibition at 5 µM (EMT-6 tumor cells; EMT6, light or radiation study, 2 h, SL-017 5 μM, white LED light (9 W), 2.0 J/cm^2): 100%
Number of Colonies (EMT-6 tumor cells; SL-017 5 μM, orange (rhodamine 6G) chemiluminescent light stick, 1 hour exposure): 86.3
Number of Colonies (EMT-6 tumor cells; SL-017 5 μM, orange (rhodamine 6G) chemiluminescent light stick, 2 hour exposure): 187.3
Number of Colonies (EMT-6 tumor cells; SL-017 5 μM, red LED light (3 W), 0.1 J/cm^2): 0
Number of Colonies (EMT-6 tumor cells; SL-017 5 μM, red LED light (3 W), 0.25 J/cm^2): 0
Number of Colonies (EMT-6 tumor cells; SL-017 5 μM, red LED light (3 W), 0.4 J/cm^2): 0
Number of Colonies (EMT-6 tumor cells; SL-017 5 μM, white LED light (9 W), 0.5 J/cm^2): 1.8
Number of Colonies (EMT-6 tumor cells; SL-017 5 μM, white LED light (9 W), 1.0 J/cm^2): 0
Number of Colonies (EMT-6 tumor cells; SL-017 5 μM, white LED light (9 W), 2.0 J/cm^2): 0
delay in hair re-growth (mouse skin; 2% SL-017 topical gel for 60 minutes, red LED light, 30 J/cm^2): 3 weeks
re-growth of hair in the treated area versus controls (mouse skin; 2% SL-017 topical gel for 60 minutes, white LED light, 15 J/cm^2): no differences in the re-growth of hair
delay in re-growth of hair (mouse skin; 2% SL-017 topical gel for 60 minutes, white LED light, 30 J/cm^2): < 1 week
skin reaction post treatment at the treated site (mouse skin; mouse, in vivo): erythema is observed
